Tests used:
[1] = system: PC-3; test: Cytotoxicity against human PC3 cells assessed growth inhibition; type: functional, cell-based
[2] = system: LNCaP; test: Cytotoxicity against human LNCAP cells; type: cell-based

| SMILES | IC50 [1] | Activity [2] |
| --- | --- | --- |
| CC(C)(O)c1cn(-c2ccc(Cl)c(C(F)(F)F)c2)nn1 | 69 µM |  |
| CC(C)(O)c1cn(-c2ccc(C#N)c(C(F)(F)F)c2)nn1 |  | Toxic |
| CC(C)(O)c1cn(-c2ccc([N+](=O)[O-])c(C(F)(F)F)c2)nn1 | 63 µM |  |
| CC(C)(O)c1cn(-c2cc(C(F)(F)F)cc(C(F)(F)F)c2)nn1 | 42 µM |  |

— ChEMBL document CHEMBL3259638, “Preliminary investigations into triazole derived androgen receptor antagonists” (Bioorg Med Chem, 2014)
